In ChEMBL document CHEMBL1154797, “Synthesis, anti-bacterial and anti-fungal activities of some novel Schiff bases containing 2,4-disubstituted thiazole ring” (2010):
≈ marks a conversion by molar mass, not a printed value.

Columns and labels:
[1] = test system: Candida albicans; assay: Antifungal activity against Candida albicans; type: functional
[2] = test system: Cryptococcus neoformans; assay: Antifungal activity against Cryptococcus neoformans; type: functional
[3] = test system: Aspergillus flavus; assay: Antifungal activity against Aspergillus flavus; type: functional
[4] = test system: Cryptococcus neoformans; type: functional
Description: Antifungal activity against Cryptococcus neoformans at MIC after 72 hrs by disk diffusion assay

[5] = test system: Candida albicans; type: functional
Description: Antifungal activity against Candida albicans at MIC after 72 hrs by disk diffusion assay

[6] = test system: Aspergillus flavus; type: functional
Description: Antifungal activity against Aspergillus flavus at MIC after 72 hrs by disk diffusion assay

[7] = test system: Pseudomonas aeruginosa; assay: Antibacterial activity against Pseudomonas aeruginosa at MIC after 24 hrs by disk diffusion assay; type: functional
[8] = test system: Pseudomonas aeruginosa; assay: Antibacterial activity against Pseudomonas aeruginosa; type: functional
[9] = test system: Candida tropicalis; type: functional
Description: Antifungal activity against Candida tropicalis at MIC after 72 hrs by disk diffusion assay

[10] = test system: Candida tropicalis; assay: Antifungal activity against Candida tropicalis; type: functional
[11] = test system: Staphylococcus aureus; assay: Antibacterial activity against Staphylococcus aureus; type: functional
[12] = test system: Vibrio cholerae; assay: Antibacterial activity against Vibrio cholerae; type: functional
[13] = test system: Staphylococcus aureus; assay: Antibacterial activity against Staphylococcus aureus at MIC after 24 hrs by disk diffusion assay; type: functional
[14] = test system: Vibrio cholerae; assay: Antibacterial activity against Vibrio cholerae at MIC after 24 hrs by disk diffusion assay; type: functional
[15] = test system: Klebsiella pneumoniae; assay: Antibacterial activity against Klebsiella pneumoniae at MIC after 24 hrs by disk diffusion assay; type: functional
[16] = test system: Klebsiella pneumoniae; assay: Antibacterial activity against Klebsiella pneumoniae; type: functional
[17] = test system: Salmonella enterica; assay: Antibacterial activity against Salmonella typhi at MIC after 24 hrs by disk diffusion assay; type: functional, Salmonella enterica subsp. enterica serovar Typhi
[18] = test system: Salmonella enterica; assay: Antibacterial activity against Salmonella typhi; type: functional, Salmonella enterica subsp. enterica serovar Typhi

SMILES | MIC [1] | MIC [2] | MIC [3] | diameter of the inhibition zone (DIZ) [4] | diameter of the inhibition zone (DIZ) [5] | diameter of the inhibition zone (DIZ) [6] | also measured
COc1ccc(-c2csc(N/N=C/c3ccccc3)n2)cc1 | 12.5 µg/mL (≈ 40.4 µM) | 12.5 µg/mL (≈ 40.4 µM) | 12.5 µg/mL (≈ 40.4 µM) | 14 mm | 13 mm | 13 mm | 
COc1ccc(-c2csc(N/N=C/c3ccc(O)cc3O)n2)cc1 |  |  |  |  |  |  | diameter of the inhibition zone (DIZ) [7]: <10 mm; MIC [8]: 50 µg/mL (≈ 146 µM)
Brc1ccc(-c2csc(N/N=C/c3ccccc3)n2)cc1 | 12.5 µg/mL (≈ 34.9 µM) | 12.5 µg/mL (≈ 34.9 µM) | 12.5 µg/mL (≈ 34.9 µM) | 15 mm | 15 mm | 16 mm | diameter of the inhibition zone (DIZ) [9]: 14 mm; MIC [10]: 25 µg/mL (≈ 69.8 µM)
OC(/C(=N/Nc1nc(-c2ccc(Br)cc2)cs1)c1ccccc1)c1ccccc1 (stereo not given) | 6.25 µg/mL (≈ 13.5 µM) | 6.25 µg/mL (≈ 13.5 µM) | 6.25 µg/mL (≈ 13.5 µM) | 21 mm | 19 mm | 17 mm | diameter of the inhibition zone (DIZ) [9]: 16 mm; MIC [10]: 6.25 µg/mL (≈ 13.5 µM); MIC [11]: 12.5 µg/mL (≈ 26.9 µM); MIC [12]: 12.5 µg/mL (≈ 26.9 µM); diameter of the inhibition zone (DIZ) [13]: 17 mm; diameter of the inhibition zone (DIZ) [14]: 17 mm
Brc1ccc(-c2csc(NN=C3CCCCC3)n2)cc1 | 12.5 µg/mL (≈ 35.7 µM) | 12.5 µg/mL (≈ 35.7 µM) | 12.5 µg/mL (≈ 35.7 µM) | 16 mm | 17 mm | 16 mm | diameter of the inhibition zone (DIZ) [9]: 14 mm; MIC [10]: 12.5 µg/mL (≈ 35.7 µM)
COc1ccc(/C=N/Nc2nc(-c3ccc(OC)cc3)cs2)cc1 |  |  |  |  |  |  | MIC [11]: 50 µg/mL (≈ 147 µM); diameter of the inhibition zone (DIZ) [13]: <10 mm
COc1ccc(-c2csc(N/N=C/c3cc(OC)c(OC)c(OC)c3)n2)cc1 |  |  |  |  |  |  | MIC [11]: 50 µg/mL (≈ 125 µM); diameter of the inhibition zone (DIZ) [13]: <10 mm
COc1ccc(-c2csc(N/N=C/c3ccc(OC)c(OC)c3)n2)cc1 |  |  |  |  |  |  | MIC [11]: 50 µg/mL (≈ 135 µM); diameter of the inhibition zone (DIZ) [13]: <10 mm
COc1ccc(-c2csc(N/N=C/c3ccccc3O)n2)cc1 | 25 µg/mL (≈ 76.8 µM) | 25 µg/mL (≈ 76.8 µM) |  | 12 mm | 11 mm |  | diameter of the inhibition zone (DIZ) [9]: 13 mm; MIC [10]: 25 µg/mL (≈ 76.8 µM)
COc1ccc(-c2csc(N/N=C(\c3ccccc3)C(O)c3ccccc3)n2)cc1 (stereo not given) |  |  | 25 µg/mL (≈ 60.2 µM) |  |  | 13 mm | MIC [12]: 25 µg/mL (≈ 60.2 µM); diameter of the inhibition zone (DIZ) [14]: 16 mm
Fc1ccccc1/C=N/Nc1nc(-c2ccc(Br)cc2)cs1 |  |  |  |  |  |  | diameter of the inhibition zone (DIZ) [15]: <10 mm; MIC [16]: 50 µg/mL (≈ 133 µM)
Oc1ccccc1/C=N/Nc1nc(-c2ccc(Br)cc2)cs1 |  |  |  |  |  |  | diameter of the inhibition zone (DIZ) [15]: <10 mm; MIC [16]: 50 µg/mL (≈ 134 µM)
Brc1ccc(-c2csc(N/N=C/c3c[nH]c4ccccc34)n2)cc1 |  | 25 µg/mL (≈ 62.9 µM) |  | 13 mm |  |  | 
Brc1ccc(-c2csc(NN=C3CCCC3)n2)cc1 | 12.5 µg/mL (≈ 37.2 µM) | 12.5 µg/mL (≈ 37.2 µM) | 12.5 µg/mL (≈ 37.2 µM) | 14 mm | 16 mm | 15 mm | MIC [12]: 6.25 µg/mL (≈ 18.6 µM); diameter of the inhibition zone (DIZ) [14]: 19 mm
COc1ccc(-c2csc(NN=C3CCCC3)n2)cc1 | 12.5 µg/mL (≈ 43.5 µM) | 12.5 µg/mL (≈ 43.5 µM) | 12.5 µg/mL (≈ 43.5 µM) | 18 mm | 17 mm | 18 mm | 
O=C(O)c1cn(C2CC2)c2cc(N3CCNCC3)c(F)cc2c1=O [CIPROFLOXACIN] |  |  |  |  |  |  | diameter of the inhibition zone (DIZ) [15]: 23 mm; diameter of the inhibition zone (DIZ) [13]: 25 mm; diameter of the inhibition zone (DIZ) [17]: 18 mm; MIC [18]: 6.25 µg/mL (≈ 18.9 µM); MIC [16]: 6.25 µg/mL (≈ 18.9 µM)
OC(Cn1cncn1)(Cn1cncn1)c1ccc(F)cc1F [FLUCONAZOLE] | 6.25 µg/mL (≈ 20.4 µM) | 6.25 µg/mL (≈ 20.4 µM) | 6.25 µg/mL (≈ 20.4 µM) | 22 mm | 22 mm | 19 mm | diameter of the inhibition zone (DIZ) [9]: 20 mm; MIC [10]: 6.25 µg/mL (≈ 20.4 µM)
